Data reported in publication PMC7407272, “Induction of Lysosome Membrane Permeabilization as a Therapeutic Strategy to Target Pancreatic Cancer Stem Cells” (Cancers, 2020).
pIC50: −log10 of the molar value.

Assays:
[1] = target: T1, MEK3 (Homo sapiens, UniProt P46734); assay: KINOMEscan; assay type: binding; conditions: read-out: % Ctrl
T1 construct: purchased DiscoveRx KINOMEscan

[2] = target: T2, SBK1 (Homo sapiens, UniProt Q52WX2); assay: KINOMEscan; assay type: binding; conditions: read-out: % Ctrl
T2 construct: purchased DiscoveRx KINOMEscan

[3] = target: T3, RET(V804L) (Homo sapiens, UniProt P07949, V804L); assay: KINOMEscan; assay type: binding; conditions: read-out: % Ctrl
T3 construct: purchased DiscoveRx KINOMEscan

[4] = target: T4, MAP3K2 (Homo sapiens, UniProt Q9Y2U5); assay: KINOMEscan; assay type: binding; conditions: read-out: % Ctrl
T4 construct: purchased DiscoveRx KINOMEscan

[5] = target: T5, JNK1 (Homo sapiens, UniProt P45983); assay: KINOMEscan; assay type: binding; conditions: read-out: % Ctrl
T5 construct: purchased DiscoveRx KINOMEscan

[6] = target: T6, ABL1(Y253F)-P (Homo sapiens, UniProt P00519, Y253F); assay: KINOMEscan; assay type: binding; conditions: read-out: % Ctrl
T6 construct: purchased DiscoveRx KINOMEscan

[7] = target: T7, PHKG2 (Homo sapiens, UniProt P15735); assay: KINOMEscan; assay type: binding; conditions: read-out: % Ctrl
T7 construct: purchased DiscoveRx KINOMEscan

[8] = target: T8, PIK3CA (Homo sapiens, UniProt P42336); assay: KINOMEscan; assay type: binding; conditions: read-out: % Ctrl
T8 construct: purchased DiscoveRx KINOMEscan

[9] = target: T9, ABL1(T315I)-nonP (Homo sapiens, UniProt P00519, T315I); assay: KINOMEscan; assay type: binding; conditions: read-out: % Ctrl
T9 construct: purchased DiscoveRx KINOMEscan

[10] = target: T10, GRK1 (Homo sapiens, UniProt Q15835); assay: KINOMEscan; assay type: binding; conditions: read-out: % Ctrl
T10 construct: purchased DiscoveRx KINOMEscan

[11] = target: T11, DDR1 (Homo sapiens, UniProt Q08345); assay: KINOMEscan; assay type: binding; conditions: read-out: % Ctrl
T11 construct: purchased DiscoveRx KINOMEscan

[12] = target: T12, PFTAIRE2 (Homo sapiens, UniProt Q96Q40); assay: KINOMEscan; assay type: binding; conditions: read-out: % Ctrl
T12 construct: purchased DiscoveRx KINOMEscan

[13] = target: PIM1 (Homo sapiens, UniProt P11309); assay: KINOMEscan; assay type: binding; design: purchased DiscoveRx KINOMEscan; conditions: read-out: % Ctrl
PIM1, sequence (P11309 whole entry): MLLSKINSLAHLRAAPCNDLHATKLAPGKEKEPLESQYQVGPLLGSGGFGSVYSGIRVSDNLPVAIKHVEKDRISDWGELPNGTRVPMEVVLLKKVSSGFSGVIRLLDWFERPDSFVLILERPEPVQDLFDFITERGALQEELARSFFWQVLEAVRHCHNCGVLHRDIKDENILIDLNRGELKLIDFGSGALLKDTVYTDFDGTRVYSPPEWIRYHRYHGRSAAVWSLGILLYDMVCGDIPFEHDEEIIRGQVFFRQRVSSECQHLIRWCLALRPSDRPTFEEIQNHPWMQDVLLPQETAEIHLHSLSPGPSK

[14] = target: T13, GRK2 (Homo sapiens, UniProt P25098); assay: KINOMEscan; assay type: binding; conditions: read-out: % Ctrl
T13 construct: purchased DiscoveRx KINOMEscan
T13 sequence (P25098 whole entry): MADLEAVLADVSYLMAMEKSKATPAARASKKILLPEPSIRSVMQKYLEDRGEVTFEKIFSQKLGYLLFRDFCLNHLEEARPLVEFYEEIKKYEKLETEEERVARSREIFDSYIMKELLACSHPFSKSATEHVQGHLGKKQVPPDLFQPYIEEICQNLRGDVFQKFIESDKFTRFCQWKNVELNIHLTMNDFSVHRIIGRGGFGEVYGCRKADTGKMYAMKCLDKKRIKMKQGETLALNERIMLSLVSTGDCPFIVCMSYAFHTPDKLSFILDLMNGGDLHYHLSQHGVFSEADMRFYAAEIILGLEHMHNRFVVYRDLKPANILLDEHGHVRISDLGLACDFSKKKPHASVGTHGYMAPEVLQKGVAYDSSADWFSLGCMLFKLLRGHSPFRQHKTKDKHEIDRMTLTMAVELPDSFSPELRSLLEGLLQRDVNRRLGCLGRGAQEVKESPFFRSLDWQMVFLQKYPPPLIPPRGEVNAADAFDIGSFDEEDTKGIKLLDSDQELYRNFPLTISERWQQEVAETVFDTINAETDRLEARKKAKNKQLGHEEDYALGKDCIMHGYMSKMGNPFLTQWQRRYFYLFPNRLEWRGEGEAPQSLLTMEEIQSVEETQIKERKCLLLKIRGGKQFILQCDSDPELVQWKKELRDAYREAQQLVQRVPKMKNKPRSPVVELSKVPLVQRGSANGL

[15] = target: T14, PIK3CG (Homo sapiens, UniProt P48736); assay: KINOMEscan; assay type: binding; conditions: read-out: % Ctrl
T14 construct: purchased DiscoveRx KINOMEscan

[16] = target: T15, CDKL5 (Homo sapiens, UniProt O76039); assay: KINOMEscan; assay type: binding; conditions: read-out: % Ctrl
T15 construct: purchased DiscoveRx KINOMEscan

[17] = target: T16, MAP3K15 (Homo sapiens, UniProt Q6ZN16); assay: KINOMEscan; assay type: binding; conditions: read-out: % Ctrl
T16 construct: purchased DiscoveRx KINOMEscan

[18] = target: T17, ABL1(Q252H)-P (Homo sapiens, UniProt P00519, Q252H); assay: KINOMEscan; assay type: binding; conditions: read-out: % Ctrl
T17 construct: purchased DiscoveRx KINOMEscan

[19] = target: T18, MAP4K2 (Homo sapiens, UniProt Q12851); assay: KINOMEscan; assay type: binding; conditions: read-out: % Ctrl
T18 construct: purchased DiscoveRx KINOMEscan

[20] = target: T19, VEGFR2 (Homo sapiens, UniProt P35968); assay: KINOMEscan; assay type: binding; conditions: read-out: % Ctrl
T19 construct: purchased DiscoveRx KINOMEscan

[21] = target: T20, MAPKAPK5 (Homo sapiens, UniProt Q8IW41); assay: KINOMEscan; assay type: binding; conditions: read-out: % Ctrl
T20 construct: purchased DiscoveRx KINOMEscan

[22] = target: T21, CAMK1D (Homo sapiens, UniProt Q8IU85); assay: KINOMEscan; assay type: binding; conditions: read-out: % Ctrl
T21 construct: purchased DiscoveRx KINOMEscan

[23] = target: T22, EGFR(L747-S752del, P753S) (Homo sapiens, UniProt P00533, DEL747-752/P753S); assay: KINOMEscan; assay type: binding; conditions: read-out: % Ctrl
T22 construct: purchased DiscoveRx KINOMEscan

[24] = target: T23, LRRK2 (Homo sapiens, UniProt Q5S007); assay: KINOMEscan; assay type: binding; conditions: read-out: % Ctrl
T23 construct: purchased DiscoveRx KINOMEscan

[25] = target: T24, PCTK1 (Homo sapiens, UniProt Q00536); assay: KINOMEscan; assay type: binding; conditions: read-out: % Ctrl
T24 construct: purchased DiscoveRx KINOMEscan

[26] = target: T25, ABL1(Q252H)-nonP (Homo sapiens, UniProt P00519, Q252H); assay: KINOMEscan; assay type: binding; conditions: read-out: % Ctrl
T25 construct: purchased DiscoveRx KINOMEscan

[27] = target: T26, KIT(A829P) (Homo sapiens, UniProt P10721, A829P); assay: KINOMEscan; assay type: binding; conditions: read-out: % Ctrl
T26 construct: purchased DiscoveRx KINOMEscan

[28] = target: T27, RPS6KA4(KD1-N-t.) (Homo sapiens, UniProt O75676); assay: KINOMEscan; assay type: binding; conditions: read-out: % Ctrl
T27 construct: RPS6KA4(KD1-N-t.); purchased DiscoveRx KINOMEscan

[29] = target: T28, CTK (Homo sapiens, UniProt P42679); assay: KINOMEscan; assay type: binding; conditions: read-out: % Ctrl
T28 construct: purchased DiscoveRx KINOMEscan

[30] = target: T29, IRAK1 (Homo sapiens, UniProt P51617); assay: KINOMEscan; assay type: binding; conditions: read-out: % Ctrl
T29 construct: purchased DiscoveRx KINOMEscan

[31] = target: T30, PDGFRA (Homo sapiens, UniProt P16234); assay: KINOMEscan; assay type: binding; conditions: read-out: % Ctrl
T30 construct: purchased DiscoveRx KINOMEscan

[32] = target: T31, ALK(L1196M) (Homo sapiens, UniProt Q9UM73, L1196M); assay: KINOMEscan; assay type: binding; conditions: read-out: % Ctrl
T31 construct: purchased DiscoveRx KINOMEscan

[33] = target: T32, MLCK (Homo sapiens, UniProt Q32MK0); assay: KINOMEscan; assay type: binding; conditions: read-out: % Ctrl
T32 construct: purchased DiscoveRx KINOMEscan

[34] = target: T33, BRSK1 (Homo sapiens, UniProt Q8TDC3); assay: KINOMEscan; assay type: binding; conditions: read-out: % Ctrl
T33 construct: purchased DiscoveRx KINOMEscan
T33 sequence (Q8TDC3 whole entry): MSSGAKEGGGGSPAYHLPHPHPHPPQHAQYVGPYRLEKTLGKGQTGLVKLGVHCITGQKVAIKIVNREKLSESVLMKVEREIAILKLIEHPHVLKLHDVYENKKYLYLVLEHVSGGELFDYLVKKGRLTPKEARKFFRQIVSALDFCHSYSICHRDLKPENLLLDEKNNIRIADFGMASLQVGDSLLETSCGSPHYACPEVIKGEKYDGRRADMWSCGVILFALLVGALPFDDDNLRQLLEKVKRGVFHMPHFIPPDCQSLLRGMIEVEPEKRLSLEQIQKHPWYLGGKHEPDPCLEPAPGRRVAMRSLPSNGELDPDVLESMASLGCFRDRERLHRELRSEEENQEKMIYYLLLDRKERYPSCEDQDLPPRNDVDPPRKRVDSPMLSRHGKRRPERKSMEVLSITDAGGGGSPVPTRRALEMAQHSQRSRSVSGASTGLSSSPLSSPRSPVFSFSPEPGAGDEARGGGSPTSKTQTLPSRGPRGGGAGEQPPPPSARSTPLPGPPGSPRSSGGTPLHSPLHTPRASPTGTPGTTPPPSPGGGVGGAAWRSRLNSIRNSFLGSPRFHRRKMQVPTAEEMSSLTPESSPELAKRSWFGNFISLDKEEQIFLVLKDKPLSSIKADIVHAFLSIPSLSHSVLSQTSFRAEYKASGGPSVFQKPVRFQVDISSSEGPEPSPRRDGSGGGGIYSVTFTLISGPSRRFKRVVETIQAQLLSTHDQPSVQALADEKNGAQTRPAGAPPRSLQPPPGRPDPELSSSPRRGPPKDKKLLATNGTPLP

[35] = target: T34, KIT(L576P) (Homo sapiens, UniProt P10721, L576P); assay: KINOMEscan; assay type: binding; conditions: read-out: % Ctrl
T34 construct: purchased DiscoveRx KINOMEscan

[36] = target: T35, SRPK2 (Homo sapiens, UniProt P78362); assay: KINOMEscan; assay type: binding; conditions: read-out: % Ctrl
T35 construct: purchased DiscoveRx KINOMEscan

[37] = target: T36, CDK8 (Homo sapiens, UniProt P49336); assay: KINOMEscan; assay type: binding; conditions: read-out: % Ctrl
T36 construct: purchased DiscoveRx KINOMEscan

[38] = target: T37, ADCK3 (Homo sapiens, UniProt Q8NI60); assay: KINOMEscan; assay type: binding; conditions: read-out: % Ctrl
T37 construct: purchased DiscoveRx KINOMEscan
T37 sequence (Q8NI60 163-647): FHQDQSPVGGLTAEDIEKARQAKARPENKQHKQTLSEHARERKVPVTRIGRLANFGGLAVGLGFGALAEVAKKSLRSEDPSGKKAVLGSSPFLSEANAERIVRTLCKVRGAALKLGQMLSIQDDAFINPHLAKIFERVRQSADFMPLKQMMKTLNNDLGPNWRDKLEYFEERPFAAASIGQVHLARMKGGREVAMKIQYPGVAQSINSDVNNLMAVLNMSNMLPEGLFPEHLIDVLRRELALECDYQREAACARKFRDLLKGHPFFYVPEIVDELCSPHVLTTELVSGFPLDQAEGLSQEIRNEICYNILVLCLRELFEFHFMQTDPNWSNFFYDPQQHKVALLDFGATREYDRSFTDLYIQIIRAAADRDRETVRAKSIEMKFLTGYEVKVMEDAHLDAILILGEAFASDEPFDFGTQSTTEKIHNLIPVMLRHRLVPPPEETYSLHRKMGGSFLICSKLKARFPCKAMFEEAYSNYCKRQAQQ

[39] = target: T38, MELK (Homo sapiens, UniProt Q14680); assay: KINOMEscan; assay type: binding; conditions: read-out: % Ctrl
T38 construct: purchased DiscoveRx KINOMEscan
T38 sequence (Q14680 whole entry): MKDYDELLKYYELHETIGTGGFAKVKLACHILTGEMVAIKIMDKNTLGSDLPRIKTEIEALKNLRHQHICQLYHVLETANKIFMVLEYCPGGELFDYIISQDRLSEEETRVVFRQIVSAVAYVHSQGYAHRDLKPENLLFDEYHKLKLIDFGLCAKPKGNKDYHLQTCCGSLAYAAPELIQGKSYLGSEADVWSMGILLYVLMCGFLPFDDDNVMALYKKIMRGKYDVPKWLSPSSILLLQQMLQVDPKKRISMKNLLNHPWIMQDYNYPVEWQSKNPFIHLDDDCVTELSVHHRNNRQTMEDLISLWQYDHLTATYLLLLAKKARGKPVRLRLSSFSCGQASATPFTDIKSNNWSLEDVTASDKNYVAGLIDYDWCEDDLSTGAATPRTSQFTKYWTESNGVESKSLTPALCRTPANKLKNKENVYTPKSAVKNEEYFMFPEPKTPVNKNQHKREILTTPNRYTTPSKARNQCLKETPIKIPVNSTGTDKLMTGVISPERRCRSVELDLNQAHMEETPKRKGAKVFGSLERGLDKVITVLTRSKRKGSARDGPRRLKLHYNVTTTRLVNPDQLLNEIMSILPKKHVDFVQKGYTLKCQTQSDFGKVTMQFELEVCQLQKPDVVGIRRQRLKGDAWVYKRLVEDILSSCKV

[40] = target: T39, RIPK5 (Homo sapiens, UniProt Q6XUX3); assay: KINOMEscan; assay type: binding; conditions: read-out: % Ctrl
T39 construct: purchased DiscoveRx KINOMEscan
T39 sequence (Q6XUX3 whole entry): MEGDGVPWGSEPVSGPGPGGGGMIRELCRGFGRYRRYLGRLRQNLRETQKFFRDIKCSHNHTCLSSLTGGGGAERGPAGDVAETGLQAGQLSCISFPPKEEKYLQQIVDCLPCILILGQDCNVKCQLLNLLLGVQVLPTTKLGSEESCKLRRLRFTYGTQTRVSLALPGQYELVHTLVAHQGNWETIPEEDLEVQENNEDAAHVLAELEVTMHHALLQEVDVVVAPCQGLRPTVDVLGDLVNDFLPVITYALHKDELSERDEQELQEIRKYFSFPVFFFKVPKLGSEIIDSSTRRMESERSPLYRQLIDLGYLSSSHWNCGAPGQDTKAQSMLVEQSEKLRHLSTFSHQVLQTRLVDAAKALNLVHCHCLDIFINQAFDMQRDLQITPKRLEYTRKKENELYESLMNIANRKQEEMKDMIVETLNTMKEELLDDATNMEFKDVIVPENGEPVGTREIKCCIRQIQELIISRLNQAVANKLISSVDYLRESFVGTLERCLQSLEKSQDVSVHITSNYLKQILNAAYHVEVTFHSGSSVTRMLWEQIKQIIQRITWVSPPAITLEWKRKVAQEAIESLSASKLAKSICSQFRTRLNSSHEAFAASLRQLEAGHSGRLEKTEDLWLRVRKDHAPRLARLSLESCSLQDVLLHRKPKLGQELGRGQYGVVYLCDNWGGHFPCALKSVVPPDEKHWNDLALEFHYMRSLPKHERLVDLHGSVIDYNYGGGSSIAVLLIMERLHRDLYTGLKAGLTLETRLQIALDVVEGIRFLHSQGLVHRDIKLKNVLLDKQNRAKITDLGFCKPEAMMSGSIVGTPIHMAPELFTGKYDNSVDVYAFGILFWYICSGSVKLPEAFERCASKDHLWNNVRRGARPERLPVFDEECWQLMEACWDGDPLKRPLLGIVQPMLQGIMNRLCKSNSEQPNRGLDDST

[41] = target: T40, HIPK4 (Homo sapiens, UniProt Q8NE63); assay: KINOMEscan; assay type: binding; conditions: read-out: % Ctrl
T40 construct: purchased DiscoveRx KINOMEscan

[42] = target: T41, TYK2 (Homo sapiens, UniProt P29597); assay: TYK2 kinase assay (ProQinase); assay type: biochemical; conditions: kinase orthogonal assay
T41 construct: purchased ProQinase
T41 sequence (P29597 whole entry): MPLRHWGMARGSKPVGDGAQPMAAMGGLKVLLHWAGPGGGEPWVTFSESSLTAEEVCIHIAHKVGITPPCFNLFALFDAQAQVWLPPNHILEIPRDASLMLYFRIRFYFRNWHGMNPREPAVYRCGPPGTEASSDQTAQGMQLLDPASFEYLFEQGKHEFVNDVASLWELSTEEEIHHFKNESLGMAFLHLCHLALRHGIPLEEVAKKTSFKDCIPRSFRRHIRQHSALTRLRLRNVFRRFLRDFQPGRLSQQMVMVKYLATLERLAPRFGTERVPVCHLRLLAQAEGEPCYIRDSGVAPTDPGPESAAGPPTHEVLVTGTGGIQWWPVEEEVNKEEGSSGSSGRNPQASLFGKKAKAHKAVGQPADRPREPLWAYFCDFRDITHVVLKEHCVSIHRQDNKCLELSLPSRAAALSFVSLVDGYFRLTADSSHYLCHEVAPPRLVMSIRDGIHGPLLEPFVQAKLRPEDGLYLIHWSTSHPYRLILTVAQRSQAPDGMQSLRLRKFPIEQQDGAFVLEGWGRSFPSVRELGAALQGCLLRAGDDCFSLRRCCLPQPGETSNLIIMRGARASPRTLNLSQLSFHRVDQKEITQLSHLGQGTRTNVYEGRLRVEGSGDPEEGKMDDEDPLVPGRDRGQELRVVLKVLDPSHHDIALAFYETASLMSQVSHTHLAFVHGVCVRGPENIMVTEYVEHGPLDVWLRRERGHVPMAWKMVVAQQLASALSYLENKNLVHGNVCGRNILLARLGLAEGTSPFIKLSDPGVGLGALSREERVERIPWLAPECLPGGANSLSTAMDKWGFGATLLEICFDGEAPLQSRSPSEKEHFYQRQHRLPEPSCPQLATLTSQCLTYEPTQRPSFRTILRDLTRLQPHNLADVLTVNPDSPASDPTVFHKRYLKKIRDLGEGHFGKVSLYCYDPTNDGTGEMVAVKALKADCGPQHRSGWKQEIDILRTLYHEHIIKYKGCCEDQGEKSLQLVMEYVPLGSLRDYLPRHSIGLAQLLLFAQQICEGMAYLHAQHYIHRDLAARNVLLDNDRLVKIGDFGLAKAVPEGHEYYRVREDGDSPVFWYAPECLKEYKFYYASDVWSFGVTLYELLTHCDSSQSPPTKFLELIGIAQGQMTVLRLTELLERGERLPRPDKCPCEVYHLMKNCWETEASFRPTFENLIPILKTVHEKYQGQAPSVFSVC

With `CN1CCC(CNc2ccc3ncc(C(=O)Nc4cccc(OC(F)(F)F)c4)n3n2)CC1` [Cpd 2] the remaining binding at 1 µM [1] was 94%, the remaining binding at 1 µM [2] was 100% and the remaining binding at 1 µM [3] was 100%. The remaining binding at 1 µM [4] was 92%, the remaining binding at 1 µM [5] was 92% and the remaining binding at 1 µM [6] was 100%. It also gave a remaining binding at 1 µM [7] of 89%, a remaining binding at 1 µM [8] of 100% and a remaining binding at 1 µM [9] of 70%. For the same compound, the remaining binding at 1 µM [10] was 86%, the remaining binding at 1 µM [11] was 92% and the remaining binding at 1 µM [12] was 92%. The remaining binding at 1 µM [13] was 5%, the remaining binding at 1 µM [14] was 79% and the remaining binding at 1 µM [15] was 100%. It also gave a remaining binding at 1 µM [16] of 100%, a remaining binding at 1 µM [17] of 100% and a remaining binding at 1 µM [18] of 100%. It also gave a remaining binding at 1 µM [19] of 74%, a remaining binding at 1 µM [20] of 100% and a remaining binding at 1 µM [21] of 100%. It also gave a remaining binding at 1 µM [22] of 94%, a remaining binding at 1 µM [23] of 92% and a remaining binding at 1 µM [24] of 68%. The remaining binding at 1 µM [25] was 100%, the remaining binding at 1 µM [26] was 94% and the remaining binding at 1 µM [27] was 91%. It also gave a remaining binding at 1 µM [28] of 92%, a remaining binding at 1 µM [29] of 70% and a remaining binding at 1 µM [30] of 100%. The remaining binding at 1 µM [31] was 81%, the remaining binding at 1 µM [32] was 100% and the remaining binding at 1 µM [33] was 100%. It also gave a remaining binding at 1 µM [34] of 100%, a remaining binding at 1 µM [35] of 88% and a remaining binding at 1 µM [36] of 94%. For the same compound, the remaining binding at 1 µM [37] was 58%, the remaining binding at 1 µM [38] was 100% and the remaining binding at 1 µM [39] was 100%. It also gave a remaining binding at 1 µM [40] of 84%, a remaining binding at 1 µM [41] of 88% and a pIC50 [42] of 4.19.
